Measured values published in patent US20240400564A1 (Syndax Pharmaceuticals, Inc, priority 2021, published 2024).

Molecular target: hERG (Homo sapiens, UniProt Q12809)
Experiment: Patch clamp assay (hERG tail currents, whole-cell)

Chain of hERG (Q12809 whole entry): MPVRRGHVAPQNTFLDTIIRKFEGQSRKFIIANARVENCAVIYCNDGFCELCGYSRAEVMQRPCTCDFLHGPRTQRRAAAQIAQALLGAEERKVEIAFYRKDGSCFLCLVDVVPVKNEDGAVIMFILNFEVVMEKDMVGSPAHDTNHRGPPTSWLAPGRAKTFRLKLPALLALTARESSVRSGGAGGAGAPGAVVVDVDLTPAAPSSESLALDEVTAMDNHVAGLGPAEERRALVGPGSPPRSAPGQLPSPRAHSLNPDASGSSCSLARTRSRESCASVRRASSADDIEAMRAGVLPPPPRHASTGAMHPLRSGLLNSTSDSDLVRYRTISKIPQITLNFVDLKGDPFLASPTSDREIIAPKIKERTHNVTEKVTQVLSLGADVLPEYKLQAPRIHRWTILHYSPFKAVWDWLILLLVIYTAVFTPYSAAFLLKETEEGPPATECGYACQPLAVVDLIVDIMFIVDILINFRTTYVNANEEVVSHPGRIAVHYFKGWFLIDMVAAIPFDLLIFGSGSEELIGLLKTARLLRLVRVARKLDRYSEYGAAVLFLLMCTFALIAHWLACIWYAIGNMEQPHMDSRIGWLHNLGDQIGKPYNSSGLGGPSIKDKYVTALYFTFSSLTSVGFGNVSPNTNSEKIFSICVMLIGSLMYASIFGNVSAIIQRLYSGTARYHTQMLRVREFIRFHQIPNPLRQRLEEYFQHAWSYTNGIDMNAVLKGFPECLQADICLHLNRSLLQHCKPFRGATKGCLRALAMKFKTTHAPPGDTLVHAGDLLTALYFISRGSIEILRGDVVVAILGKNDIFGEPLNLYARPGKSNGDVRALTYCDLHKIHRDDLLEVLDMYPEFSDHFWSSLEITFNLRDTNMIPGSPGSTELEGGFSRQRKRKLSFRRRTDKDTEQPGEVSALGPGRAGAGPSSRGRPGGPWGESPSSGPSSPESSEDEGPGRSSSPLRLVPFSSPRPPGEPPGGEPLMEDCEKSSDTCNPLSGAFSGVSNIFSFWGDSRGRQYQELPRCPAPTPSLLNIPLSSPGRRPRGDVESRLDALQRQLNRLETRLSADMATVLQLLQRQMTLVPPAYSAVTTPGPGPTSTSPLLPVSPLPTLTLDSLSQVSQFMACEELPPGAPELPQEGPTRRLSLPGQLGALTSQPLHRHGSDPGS

CCN(CC)S(=O)(=O)N[C@@H]1CC[C@@H](CN2CCC3(CC2)CN(c2ncncc2Oc2ccc(F)cc2C(=O)N(CC(F)F)C(C)C)C3)OC1 [Example 97, 2-((4-(7-(((2S,5R)-5-((N,N-Diethylsulfamoyl)amino)tetrahydro-2H-pyran-2-yl)methyl)-2,7-diazaspiro[3.5]nonan-2-yl)pyrimidin-5-yl)oxy)-N-(2,2-difluoroethyl)-5-fluoro-N-isopropylbenzamide]
hERG % Remaining (10 μM compound): ++ (233% and ≤66%) | hERG % Remaining (30 μM compound): + (<33%)

CC(C)N(CC(F)F)C(=O)c1cc(F)ccc1Oc1cncnc1N1CC2(CCN(C[C@@H]3CC[C@@H](NS(=O)(=O)N4CCC4)CO3)CC2)C1 [Example 99, 2-((4-(7-(((2S,5R)-5-(Azetidine-1-sulfonamido)tetrahydro-2H-pyran-2-yl)methyl)-2,7-diazaspiro[3.5]nonan-2-yl)pyrimidin-5-yl)oxy)-N-(2,2-difluoroethyl)-5-fluoro-N-isopropylbenzamide]
hERG % Remaining (10 μM compound): +++ (≥66%) | hERG % Remaining (30 μM compound): ++ (233% and ≤66%)

CC(C)N(CC(F)F)C(=O)c1cc(F)ccc1Oc1cncnc1N1CC2(CCN(C[C@@H]3CC[C@@H](NS(=O)(=O)N(C)C(C)C)CO3)CC2)C1 [Example 101, N-(2,2-Difluoroethyl)-5-fluoro-N-isopropyl-2-((4-(7-(((2S,5R)-5-((N-isopropyl-N-methylsulfamoyl)amino)tetrahydro-2H-pyran-2-yl)methyl)-2,7-diazaspiro[3.5]nonan-2-yl)pyrimidin-5-yl)oxy)benzamide]
hERG % Remaining (30 μM compound): + (<33%)

CNS(=O)(=O)N[C@@H]1CC[C@@H](CN2CCC3(CC2)CN(c2ncncc2Oc2ccc(F)cc2C(=O)N(CC(F)F)C(C)C)C3)OC1 [Example 102, N-(2,2-Difluoroethyl)-5-fluoro-N-isopropyl-2-((4-(7-(((2S,5R)-5-((N-methylsulfamoyl)amino)tetrahydro-2H-pyran-2-yl)methyl)-2,7-diazaspiro[3.5]nonan-2-yl)pyrimidin-5-yl)oxy)benzamide]
hERG % Remaining (30 μM compound): +++ (≥66%)

CC(C)N(CC(F)(F)F)C(=O)c1cc(F)ccc1Oc1cncnc1N1CC2(CCN(C[C@@H]3CC[C@@H](NS(=O)(=O)N(C)C)CO3)CC2)C1 [Example 107, 2-((4-(7-(((2S,5R)-5-((N,N-Dimethylsulfamoyl)amino)tetrahydro-2H-pyran-2-yl)methyl)-2,7-diazaspiro[3.5]nonan-2-yl)pyrimidin-5-yl)oxy)-5-fluoro-N-isopropyl-N-(2,2,2-trifluoroethyl)benzamide]
hERG % Remaining (10 μM compound): +++ (≥66%) | hERG % Remaining (30 μM compound): ++ (233% and ≤66%)

CC(C)N(C(=O)c1cc(F)ccc1Oc1cncnc1N1CC2(CCN(C[C@@H]3CC[C@@H](NS(=O)(=O)C4CC4)CO3)CC2)C1)C1CC(F)(F)C1 [Example 111, 2-((4-(7-(((2S,5R)-5-(Cyclopropanesulfonamido)tetrahydro-2H-pyran-2-yl)methyl)-2,7-diazaspiro[3.5]nonan-2-yl)pyrimidin-5-yl)oxy)-N-(3,3-difluorocyclobutyl)-5-fluoro-N-isopropylbenzamide]
hERG % Remaining (10 μM compound): ++ (233% and ≤66%) | hERG % Remaining (30 μM compound): + (<33%)

CC(C)N(C(=O)c1cc(F)ccc1Oc1cncnc1N1CC2(CCN(C[C@@H]3CC[C@@H](NS(=O)(=O)N(C)C)CO3)CC2)C1)C1CC(F)(F)C1 [Example 113, N-(3,3-Difluorocyclobutyl)-2-((4-(7-(((2S,5R)-5-((N,N-dimethylsulfamoyl)amino)tetrahydro-2H-pyran-2-yl)methyl)-2,7-diazaspiro[3.5]nonan-2-yl)pyrimidin-5-yl)oxy)-5-fluoro-N-isopropylbenzamide]
hERG % Remaining (10 μM compound): +++ (≥66%) | hERG % Remaining (30 μM compound): ++ (233% and ≤66%)
